Assay results reported in patent publication US8461378B2, “Purification of fluoroalkanesulfonate salts” (E.I. du Pont de Nemours and Company, priority 2010, dated 2013).

Assay: Solubility of TFESK in water and in aqueous K2SO3 solution
Assay type: physicochemical
Excerpt: Therefore, TFESK was selectively crystallized from sulfite solutions.

## O=S(=O)([O-])C(F)(F)C(F)F.[K+] [TFESK, Potassium 1,1,2,2-tetrafluoroethanesulfonate]
2M K2SO3 solution
  solubility in 2M K2SO3 solution: 1-2 % by weight
Water at 0° C.
  solubility in water: 25 % by weight
